Results from US11661404B2, “Prodrug compounds activated by AKR1C3 and their use for treating hyperproliferative disorders” (priority 2018, dated 2023).
Read-outs that look alike come from different tables or passages of the source.

How the values were obtained:
[1] = test system: wild-type H460 lung cancer cells; assay: Anti-proliferative IC50 assay, wild-type H460; type: cell-based, human; conditions: for IC50: Homo sapiens
Procedure: (§1) Four hundred cells were seeded in a volume of 100 μL in each well of a 96-well plate. The cells were left in a humidified incubator (37° C., 5% CO2) for 2 hours in order to enable attachment to the surface of the wells prior to compound addition. All compounds were prepared as stocks in DMSO and stored at −80° C. Frozen stocks of compounds were thawed immediately prior to addition to cells. Working solutions of each compound were made in α-MEM+5% FBS (v/v) at 3 times the required final concentration for the top well. The final concentration of DMSO in the α-MEM solution was ensured to not exceed 1% of the total volume. 50 μL of the working solution was added to the top wells (in duplicates) and gently mixed. The solubility of some compounds precluded the working solution in α-MEM to be 3 times the desired top well concentration. […] A 3-fold serial dilution was carried out along the plate starting from the top well. The first column of wells on the plate served as blanks (containing α-MEM+FBS) and the second column served as control wells (containing cells with no compound added). Following compound addition, the plates were incubated for 4 hours in a humidified incubator (37° C., 5% CO2).
(§2) Following the 4 hour compound exposure, the 96-well plates were washed three times by aspirating media with an Immuno Washer (Nunc) and each well replaced with 150 μL of α-MEM+5% (v/v) FBS+1% (v/v) P/S. The plates were left in a humidified incubator (37° C., 5% CO2) for 5 days to enable cell growth. The cells in 96-well plates were fixed 5 days after compound exposure by adding 50 μL of a 40% (w/v) trichloroacetic acid (TCA) solution so as to obtain a final TCA concentration of 10% in each well. The plates were left in the refrigerator (4° C.) for 1 hour and subsequently rinsed 3 times in tap water. Any excess water was left to drain and the cells were stained with 50 μL of 0.4% (w/v) sulforhodamine B (SRB). The plates with the SRB stain were left in the dark for 30 minutes. Excess stain was removed from the wells by rinsing the plates 4 times in water containing 1% (v/v) acetic acid. The stain was solubilised by adding 100 μL of 10 mM unbuffered Tris (pH 10.5) to each well and the plates were left in a shaker in a dark environment at room temperature for at least 1 hour. The absorbance values of the wells were determined by an ELx 808 Absorbance Microplate Reader (Bio-Tek Instruments, Winooski, Vt., USA), with the wavelength of the measurement filter set at 490 nm and a reference filter set at 450 nm. The absorbance of the reference filter was subtracted from the measurement filter to obtain a final absorbance of λ490-450 nm. The absorbance data was analysed and IC50 values determined by the KC4 microplate data analysis software (KC4™ V3.4, Bio-Tek).
(§3) Anti-proliferative IC50 assays were repeated as described above including the addition of 3 μM SN34037, a selective and potent small molecule inhibitor of AKR1C3.
(§4) Materials and methods used are as described for Example 9.

[2] = test system: HCT116 colon cancer cells engineered to over-express AKR1C3; assay: Anti-proliferative IC50 assay (SRB), HCT116 over-expressing AKR1C3; type: cell-based, human; conditions: for IC50 Ratio WT:AKR1C3: HCT116-WT vs HCT116-AKR1C3
Text: (§5) The cellular cytotoxicity of compounds of the invention resulting from AKR1C3-dependent metabolism of the compounds can readily be observed in anti-proliferative IC50 testing in isogenic cell lines that have been engineered to over-express human AKR1C3, relative to their wild-type counterparts that have been selected for their comparatively low levels of endogenous AKR1C3 expression (by Western blot analysis). The direct role of AKR1C3 in metabolism and cytotoxicity of the compounds is further supported for selected examples by repeat anti-proliferative experiments in the presence of a potent and selective small molecule inhibitor of AKR1C3, SN34037 (Flanagan et al., Bioorganic & Medicinal Chemistry (2014), 22(3), 967-977).
as §1, §2, §3

[3] = test system: wild-type HCT116 colon cancer cells; assay: Anti-proliferative IC50 assay (SRB), wild-type HCT116; type: cell-based, human
Text: as §5, §1, §2, §3

[4] = test system: wild-type PLC/PRF/5 hepatocellular carcinoma cells; assay: Anti-proliferative IC50 assay, wild-type PLC/PRF/5; type: cell-based, human; conditions: Homo sapiens, PLC-PRF-5
Procedure: as §1, §2, §3, §4

[5] = test system: wild-type SNU398 hepatocellular carcinoma cells; assay: Anti-proliferative IC50 assay, wild-type SNU398; type: cell-based; conditions: Homo sapiens
Procedure: as §1, §2, §3
(§6) Materials and methods used are as described for Example 9. […] This is a surprising finding and considerably greater than the approximately 77-fold, 270-fold and 400-fold increase in sensitivity observed for PR-104A, SN33540 and SN34454, respectively. In all cases, this increase in cytotoxicity resulting from expression of AKR1C3 can be substantially reversed by addition of an AKR1C3 inhibitor (SN34037), directly implicating metabolism of the prodrugs by AKR1C3 in the observed increase in cytotoxicity. As an important control, introduction of SN34037 had no anti-proliferative effects in wild-type SNU398 cells treated with compounds of the invention.

[6] = test system: SNU398 hepatocellular carcinoma cells engineered to over-express AKR1C3; assay: Anti-proliferative IC50 assay, SNU398 over-expressing AKR1C3; type: cell-based, human; conditions: for IC50: Homo sapiens
Procedure: as §1, §2, §3, §6

[7] = test system: mixed MCLs that only express 1% of the activating reductase E. coli NfsB; conditions: 1% NfsB-expressing cells; Singleton et al., 2007; cited from earlier work
[8] = test system: AKR1C3 mixed MCLs; conditions: Silva, MSc Thesis; cited from earlier work
[9] = test system: wild-type HCT116 colon cancer cells; assay: Anti-proliferative IC50 under oxic and anoxic conditions; type: cell-based, human; conditions: for IC50: Homo sapiens, HCT-116
Text: PR-104A was initially designed and optimised as a hypoxia-selective cytotoxin (Patterson et al, Clinical Cancer Research, 2007, 13, 3922-3932). In the context of an AKR1C3-activated prodrug, this route of activation is considered off-mechanism and may potentially be undesirable, leading to off-target toxicities in a subject. Preferred compounds of the invention have been determined to be substantially resistant to hypoxia-dependent activation and cytotoxicity in wild-type HCT116 colon cancer cells. HCT116 cells were treated with compounds of the invention under either oxic or anoxic conditions and then their degree of anti-proliferative activity determined.
Selected compounds were evaluated for cytotoxic potential (IC50) under anoxic conditions. The same procedures as described above for Examples 9-11 were carried out in a Bactron anoxic chamber (Sheldon Manufacturing Inc) with internal 37° C. incubators where palladium catalyst scrubbed gas (90% N2, 5% H2, 5% CO2) ensured severe anoxia (<0.001% O2) in the whole chamber. All materials required (including cells) were taken into the chamber through two cycles of vacuum and gassing with 100% N2, followed by a single cycle with 5% CO2 and 5% hydrogen in nitrogen. All experimental materials were placed in the anoxic chamber at least 3 days prior to the day required for the experiment in order to remove any traces of residual O2. The medium used for the 96-well plates in the anoxic chamber consisted of α-MEM+10% (v/v) FBS+1% (v/v) additives (1 M β-D-Glucose and 20 mM 2′-Deoxycytidine).

[10] = NCI-H460, read-out: H460-WT +AKR1C3 Inhibitor Anti-proliferative IC50
[11] = NCI-H460, read-out: H460-WT Anti-proliferative IC50
[12] = read-out: PLC/PRF/5-WT Anti-proliferative IC50
[13] = with 3 μM SN34037, read-out: PLC/PRF/5-WT +AKR1C3 Inhibitor Anti-proliferative IC50
[14] = SNU-398, read-out: SNU398-WT +AKR1C3 Inhibitor Anti-proliferative IC50
[15] = SNU-398, read-out: SNU398-WT Anti-proliferative IC50
[16] = SNU-398, read-out: SNU398-AKR1C3 +AKR1C3 Inhibitor Anti-proliferative IC50
[17] = SNU-398, read-out: SNU398-AKR1C3 Anti-proliferative IC50

| Structure (SMILES) | IC50 [1, 10] | IC50 [1, 11] | IC50 Ratio WT:AKR1C3 [2] | IC50 [4, 12] | IC50 [4, 13] | IC50 [5, 14] | IC50 [5, 15] | IC50 [6, 16] | IC50 [6, 17] | BEE reported in AKR1C3 mixed MCLs [8] | further results |
| --- | --- | --- | --- | --- | --- | --- | --- | --- | --- | --- | --- |
| CS(=O)(=O)O.CS(=O)(=O)OCCN(CCOS(C)(=O)=O)c1ccc([N+](=O)[O-])cc1S(=O)(=O)N1CCNCC1 |  |  |  |  |  |  |  |  |  |  | melting point: 147 to 149 °C |
| CN1CCN(S(=O)(=O)c2cc([N+](=O)[O-])ccc2N(CCBr)CCBr)CC1 [Compound 563, N,N-bis(2-bromoethyl)-2-((4-methylpiperazin-1-yl)sulfonyl)-4-nitroaniline] | 3.09 µM | 0.019 µM | 816 | 4.2 µM | 21.5 µM | 5.87 µM | 6.93 µM | 4.19 µM | 0.015 µM |  | more cytotoxic in H460 cells than SN34118 [1]: 82 fold; more cytotoxic than SN34118 to AKR1C3-expressing HCT116 cells [2]: 43 fold; IC50 ([2]; Homo sapiens, HCT-116, read-out: HCT116-AKR1C3 IC50): 0.009 µM; IC50 ([2]; read-out: HCT116-AKR1C3 + AKR1C3 Inhibitor IC50, with 3 μM SN34037): 3.26 µM; IC50 ([3]; Homo sapiens, HCT-116, read-out: HCT116-WT IC50): 7.34 µM; IC50 ([3]; read-out: HCT116-WT + AKR1C3 Inhibitor IC50, with 3 μM SN34037): 5.89 µM |
| O=C(NCCO)c1cc([N+](=O)[O-])cc([N+](=O)[O-])c1N(CCBr)CCBr [SN27686, reference compound] |  |  | 29 |  |  |  |  |  |  | 57.6% | IC50 ([2]; 4 hour exposure, 5 days growth, read-out: HCT116-AKR1C3 IC50): 1.46 µM; IC50 ([3]; 4 hour exposure, 5 days growth, read-out: HCT116-WT IC50): 42.6 µM; bystander effect [7]: 48% |
| CN1CCN(C(=O)c2cc([N+](=O)[O-])cc([N+](=O)[O-])c2N(CCBr)CCOS(C)(=O)=O)CC1 [SN33540, reference compound] | 97.7 µM | 0.536 µM |  | 83.9 µM | 248 µM | 248 µM | 231 µM | 193 µM | 0.844 µM | 60% | IC50 ([9]; anoxic (<0.001% O2), read-out: HCT116-WT Anti-proliferative IC50 Anoxic): 5.1 µM; IC50 ([9]; read-out: HCT116-WT Anti-proliferative IC50 Oxic): 127 µM; Hypoxic Cytotoxicity Ratio (HCR) ([9]; oxic vs anoxic IC50, HCT116-WT): 25; increase in sensitivity when SNU398 cells express AKR1C3 ([6]; SNU398-WT vs SNU398-AKR1C3): ~270 fold |
